Reference: ChEMBL document CHEMBL1177747, “Cytotoxic flavonoids as agonists of peroxisome proliferator-activated receptor gamma on human cervical and prostate cancer cells” (J Nat Prod, 2010)

Columns and labels:
A549 = assay: Cytotoxicity against human A549 cells after 48 hrs by MTT assay; format: functional, cell-based; details: A549, 48 h
MDA-MB-231 = assay: Cytotoxicity against human MDA-MB-231 cells after 48 hrs by MTT assay; format: functional, cell-based; details: MDA-MB-231, 48 h
MCF7 = assay: Cytotoxicity against human MCF7 cells after 48 hrs by MTT assay; format: functional, cell-based; details: MCF7, 48 h
[1] = biological target: T1, Peroxisome proliferator-activated receptor gamma (Homo sapiens) (UniProt P37231); assay: Agonist activity at human PPARgamma expressed in Escherichia coli BL21 assessed as stimulation of binding between receptor and steroid receptor coactivator-1 at 320 uM by ELISA relative to untreated control
T1 sequence (whole entry): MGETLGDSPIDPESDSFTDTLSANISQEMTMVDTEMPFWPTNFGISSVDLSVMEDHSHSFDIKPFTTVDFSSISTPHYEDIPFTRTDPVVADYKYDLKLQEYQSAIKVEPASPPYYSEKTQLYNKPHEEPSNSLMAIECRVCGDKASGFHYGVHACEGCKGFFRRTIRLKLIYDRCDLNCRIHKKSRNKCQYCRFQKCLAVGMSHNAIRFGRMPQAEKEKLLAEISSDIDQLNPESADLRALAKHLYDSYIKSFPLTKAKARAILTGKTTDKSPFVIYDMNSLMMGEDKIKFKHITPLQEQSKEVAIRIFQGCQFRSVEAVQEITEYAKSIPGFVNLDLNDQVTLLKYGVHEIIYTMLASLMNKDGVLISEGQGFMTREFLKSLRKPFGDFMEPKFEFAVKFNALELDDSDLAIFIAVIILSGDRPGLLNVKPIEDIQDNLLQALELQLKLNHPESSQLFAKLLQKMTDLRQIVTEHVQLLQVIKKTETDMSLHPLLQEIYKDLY

[2] = biological target: T1, Peroxisome proliferator-activated receptor gamma (Homo sapiens); assay: Binding affinity to human PPARgamma expressed in Escherichia coli BL21 assessed as binding constant by fluorescence quenching assay
[3] = biological target: T1, Peroxisome proliferator-activated receptor gamma (Homo sapiens); assay: Agonist activity at human PPARgamma expressed in Escherichia coli BL21 assessed as stimulation of binding between receptor and steroid receptor coactivator-1 by ELISA
HeLa = assay: Cytotoxicity against human HeLa cells after 48 hrs by MTT assay; format: functional, cell-based
PC-3 = assay: Cytotoxicity against human PC3 cells after 48 hrs by MTT assay; format: functional, cell-based; details: PC-3, 48 h

Work on `O=c1c(O)c(-c2ccccc2)oc2ccc(O)cc12` yielded an IC50 (A549) of 100 µM, an IC50 (MDA-MB-231) greater than 100 µM and an IC50 (MCF7) greater than 100 µM. For the same molecule, the fold change (FC) [1] was 7, the K [2] was 2.36 ×10⁵ /M and the Activity [3] was “Dose-dependent effect”. It also gave an IC50 (HeLa) of 12.5 µM and an IC50 (PC-3) of 50 µM.
In the case of `COc1ccc2c(c1)c(CC(=O)O)c(C)n2C(=O)c1ccc(Cl)cc1` [INDOMETHACIN], the IC50 (A549) is reported as greater than 100 µM, the IC50 (MDA-MB-231) is reported as greater than 100 µM and the IC50 (MCF7) is reported as greater than 100 µM. For the same molecule, the fold change (FC) [1] was 2, the K [2] was 3.39 ×10⁵ /M and the IC50 (HeLa) was 50 µM. For the same molecule, the IC50 (PC-3) was greater than 100 µM.
